Results taken from patent US20260232703A1, “USE OF A SYK INHIBITOR FOR THE TREATMENT OF CHEMICAL OR RADIATION INDUCED LUNG INJURY” (Rigel Pharmaceuticals, Inc., priority 2023, published 2026).
Converted amounts (≈) assume the structure as drawn.

Legend:
[1] = Water solubility in aqueous buffer under physiological conditions; format: physicochemical
[2] = system: WAG/RijCmcr rats, leg-out PBI irradiated; experiment: Leg-out PBI rat model of radiation-induced lung injury (RILI), lung histology; format: in vivo; details: 13.5 Gy (female) or 13 Gy (male) leg-out PBI rats; fostamatinib 10 or 20 mg/kg; H&E lung sections, 5-point scale; versus untreated irradiated rats
From the text: Irradiation. Leg-out PBI rat models: WAG/RijCmcr female and male rats are unilaterally irradiated, dorsal to ventral, without the use of anesthetics at 11-12 weeks of age. Irradiations are done between 8-10 am. For leg-out PBI, non-anesthetized rats are immobilized in a plastic jig and irradiated using a […] orthovoltage x-ray system (Precision X-Ray, North Branford, Connecticut). […] Doses can range from 13-14.5 Gy for female rats and 12.5-14.5 Gy for males. During irradiation, each rat is confined to a chamber which allows irradiation of 2 rats simultaneously. One hind limb of each rat is carefully externalized from the chamber and shielded with a 0.25-inch lead block. […] Whole mount lung sections (4 μm thick) are stained with hematoxylin and eosin (H&E) and also stained with tryptase antibody (IMGENEX catalogue #IMG-80250, 1:150) (Gao et al. Radiat Res 179: 465-74; 2013. [PubMed: 23480564]) and five randomly selected fields (20×) of each lung are evaluated. The foamy macrophages, vascular, and alveolar wall thickness are scored as described previously (Medhora et al. Radiat Res 182: 545-55; 2014. [PubMed: 25361399]; Medhora et al. J Radiat Res 56: 248-60; 2015. [PubMed: 25368342]); injury is measured on a 5-point scale and a mean composite lung injury score is calculated. Mast cells are assessed by positive tryptase staining in five randomly selected fields (20×) of each lung. […]

| solubility [1] [µg/mL] | solubility of phosphate prodrug relative to active drug (Compound 1) ([1]; Compound 4 vs Compound 1) | SMILES | mean composite lung injury score [2] |
| --- | --- | --- | --- |
| 1 to 2 (≈ 2.13 to 4.25 µM) | – | COc1cc(Nc2ncc(F)c(Nc3ccc4c(n3)NC(=O)C(C)(C)O4)n2)cc(OC)c1OC [Compound 1, N4-(2,2-Dimethyl-3-oxo-4H-5-pyrid[1,4]oxazin-6-yl)-5-fluoro-N2-(3,4,5-trimethoxyphenyl)-2,4-pyrimidinediamine] | – |
| > 5000 | approximately 2000 times greater | COc1cc(Nc2ncc(F)c(Nc3ccc4c(n3)N(COP(=O)(O)O)C(=O)C(C)(C)O4)n2)cc(OC)c1OC [Compound 4] | lower |
